Test results as given in patent US20220143061A1, “3'3'-CYCLIC DINUCLEOTIDES AND PRODRUGS THEREOF” (INSTITUTE OF ORGANIC CHEMISTRY AND BIOCHEMISTRY ASCR, V.V.I., priority 2019, published 2022).
Like-named read-outs stand apart in the source and are kept apart here.

Assays:
[1] = molecular target: T1, human wild type STING (WT STING) (Homo sapiens, UniProt Q86WV6, H232R); test: 293T WT STING standard reporter assay; type: cell-based; settings: no digitonin, 7 hours, ISRE firefly luciferase
T1 construct: host or cells: 293T cells (ATCC CRL-3216), stably double transfected with pUNO1-hSTING-WT and pGL64.27-4×ISRE
T1 sequence (Q86WV6 whole entry H232R): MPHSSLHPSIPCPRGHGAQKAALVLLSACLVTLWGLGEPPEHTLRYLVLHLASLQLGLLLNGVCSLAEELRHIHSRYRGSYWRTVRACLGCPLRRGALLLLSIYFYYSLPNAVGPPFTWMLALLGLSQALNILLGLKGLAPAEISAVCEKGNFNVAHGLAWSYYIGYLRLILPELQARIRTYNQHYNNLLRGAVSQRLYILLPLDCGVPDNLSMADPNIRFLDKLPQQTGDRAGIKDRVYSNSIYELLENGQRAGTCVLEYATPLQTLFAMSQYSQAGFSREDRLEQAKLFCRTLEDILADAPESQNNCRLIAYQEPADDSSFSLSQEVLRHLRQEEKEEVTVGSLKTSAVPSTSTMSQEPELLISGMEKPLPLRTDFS
Excerpt: Two complementary oligonucleotides of the sequence […] […] […] […] […] The oligonucleotides were mixed in equal molar amounts, hybridized, and cleaved by restriction endonucleases HindIII (cat. #. R0104S, NEB, Ipswich, USA) and BglII (cat. #R0144S, NEB, Ipswich, USA). Ultimately, they were ligated into plasmid pGL4.27 (cat. #E6651, Promega, Madison, USA) linearized with the same enzymes. As result the sequence with four ISRE sites was placed upstream of the minimum promoter of firefly luciferase reporter gene.
After 5 minutes incubation at room temperature (RT), 250 μL of the mixture was added dropwise to the cells in one well. Cells were incubated 36 hours at 37° C. with 5% CO2, and then detached with 0.05% Trypsin and 0.22 g/L EDTA (both cat. #L0941, Biowest, Riverside, USA).
Transfected cells were seeded onto poly-D-lysine coated six well plates at density 50,000 cells per 1 cm^2 in DMEM medium with high glucose containing 10% heat inactivated FBS, 30 μg/mL blasticidin (cat. #ant-b1-05, InvivoGen, San Diego, USA), 0.06 mg/ml Penicillin G and 0.1 mg/ml Streptomycin Sulfate (both cat. #. L0018, Biowest, Riverside, USA). The medium was replenished every 3-4 days until visible colonies of cells resistant to blasticidin were formed.
Blasticidin resistant cells stably expressing WT STING were further transfected with pGL64.27-4×ISRE plasmid following the same procedure as described above. […] Homogeneous culture of stably double transfected cells was prepared by limiting dilution of cells in 96 well plates and wells with cells were selected that originated from a single cell.
The medium was removed the next day and three-fold serial dilutions of compounds in 100 μl medium were added to the cells. The plates were incubated for 7 hours at 37° C. with 5% CO2. Next 50 μl of the medium was removed from wells, and 30 μl of ONE-Glo™ Luciferase Assay System reagent (cat. #E6120, Promega, Madison, USA) was added to each well. Luminescence was read on Synergy H1 (Biotek, Winooski, USA).

[2] = system: peripheral blood mononuclear cell (PBMC); test: Peripheral blood mononuclear cell assay (cytokine levels); type: cell-based
Procedure: Selected compounds were tested in an in vitro peripheral blood mononuclear cell (PBMC) assay. […] Serially diluted tested compounds were added to wells in 50 μl of cultivation medium and cell were incubated with compounds for 1 h at 37° C. with 5% CO2. Plates with cells were then spun 500 g for 5 minutes and medium was removed. Cells were washed twice with the cell culture medium by the use of centrifugation and gently resuspended in 100 μl medium without compounds. After 15 hour incubation at 37° C. with 5% CO2, the cell culture medium was collected and the levels of interferon-alpha (INF-α), interferon-gamma (INF-γ) and tumor necrosis factor-alpha (TNF-α) were determined with ProcartaPlex Assays (ThermoFisher, Waltham, USA) and MAGPIX System (Merck KGaA, Darmstadt, Germany). […] Values reported are an average of runs from one to four donors.

[3] = 293T wtSTING-FL cells, read-out: 293T WT STING EC50
[4] = 1 h with compound, wash, 15 hour incubation, average of one to four donors, read-out: PBMC EC50 IFN-α
[5] = 1 h with compound, wash, 15 hour incubation, average of one to four donors, read-out: PBMC EC50 IFN-γ
[6] = 1 h with compound, wash, 15 hour incubation, average of one to four donors, read-out: PBMC EC50 TNF-α
[7] = 293T WT STING EC50, 293T wtSTING-FL cells
[8] = read-out: PBMC EC50 IFN-α, 1 h with compound, wash, 15 hour incubation, average of one to four donors
[9] = read-out: PBMC EC50 IFN-γ, 1 h with compound, wash, 15 hour incubation, average of one to four donors

| EC50 [1, 3] [µM] | SMILES | EC50 [2, 4] [µM] | EC50 [2, 5] [µM] | EC50 [2, 6] [µM] | EC50 [1, 7] [µM] | EC50 [2, 8] [µM] | EC50 [2, 9] [µM] | EC50 ([2]; read-out: PBMC EC50 TNF-α, PBMC, 1 h with compound, wash, 15 hour incubation, average of one to four donors) [µM] | EC50 ([2]; read-out: PBMC EC50 TNF-α, 1 h with compound, wash, 15 hour incubation, average of one to four donors) [µM] |
| --- | --- | --- | --- | --- | --- | --- | --- | --- | --- |
| 0.011 | CC(C)(C)C(=O)OCOP1(=O)CO[C@H]2[C@@H](F)[C@H](n3cnc4c(N)ncnc43)O[C@@H]2COP(=O)(OCOC(=O)C(C)(C)C)O[C@H]2[C@@H](F)[C@H](n3cnc4c(N)ncnc43)O[C@@H]2CO1 (single isomer, unassigned) [Compound 41c] | 0.07 | 0.06 | 0.06 | – | – | – | – | – |
| 0.05 | CC(C)OC(=O)OCOP1(=O)CO[C@H]2[C@@H](F)[C@H](n3cnc4c(N)ncnc43)O[C@@H]2COP(=O)(OCOC(=O)OC(C)C)O[C@H]2[C@@H](F)[C@H](n3cnc4c(N)ncnc43)O[C@@H]2CO1 (single isomer, unassigned) [Compound 42c] | 0.6 | 0.3 | 0.6 | – | – | – | – | – |
| – | CCCCCCCCCCCC(=O)OCSP1(=O)CO[C@H]2[C@@H](F)[C@H](n3cnc4c(N)ncnc43)O[C@@H]2COP(=O)(SCOC(=O)CCCCCCCCCCC)O[C@H]2[C@@H](F)[C@H](n3cnc4c(N)ncnc43)O[C@@H]2CO1 (single isomer, unassigned) [Compound 43b] | – | – | – | 0.03 | 0.4 | 0.3 | 0.2 | – |
| – | CCCCCCCCCCCC(=O)OCSP1(=O)CO[C@H]2[C@@H](F)[C@H](n3cnc4c(N)ncnc43)O[C@@H]2COP(=O)(SCOC(=O)CCCCCCCCCCC)O[C@H]2[C@@H](F)[C@H](n3cnc4c(N)ncnc43)O[C@@H]2CO1 (single isomer, unassigned) [Compound 43c] | – | – | – | 0.06 | 0.9 | 0.1 | – | 0.3 |
| 0.01 | CCC(C)(C)C(=O)OCOP1(=O)CO[C@H]2[C@@H](F)[C@H](n3cnc4c(N)ncnc43)O[C@@H]2COP(=O)(OCOC(=O)C(C)(C)CC)O[C@H]2[C@@H](F)[C@H](n3cnc4c(N)ncnc43)O[C@@H]2CO1 (single isomer, unassigned) [Compound 44a] | 1 | 0.5 | 0.6 | – | – | – | – | – |
| 0.006 | CCC(C)(C)C(=O)OCOP1(=O)CO[C@H]2[C@@H](F)[C@H](n3cnc4c(N)ncnc43)O[C@@H]2COP(=O)(OCOC(=O)C(C)(C)CC)O[C@H]2[C@@H](F)[C@H](n3cnc4c(N)ncnc43)O[C@@H]2CO1 (single isomer, unassigned) [Compound 44c] | 0.1 | 1.7 | 1 | – | – | – | – | – |
| 0.06 | CC1(C(=O)OCOP2(=O)CO[C@H]3[C@@H](F)[C@H](n4cnc5c(N)ncnc54)O[C@@H]3COP(=O)(OCOC(=O)C3(C)CCCCC3)O[C@H]3[C@@H](F)[C@H](n4cnc5c(N)ncnc54)O[C@@H]3CO2)CCCCC1 (single isomer, unassigned) [Compound 45a] | 1 | 8 | 0.5 | – | – | – | – | – |
| 0.07 | CC1(C(=O)OCOP2(=O)CO[C@H]3[C@@H](F)[C@H](n4cnc5c(N)ncnc54)O[C@@H]3COP(=O)(OCOC(=O)C3(C)CCCCC3)O[C@H]3[C@@H](F)[C@H](n4cnc5c(N)ncnc54)O[C@@H]3CO2)CCCCC1 (single isomer, unassigned) [Compound 45c] | 0.3 | 0.2 | 0.4 | – | – | – | – | – |
| 0.005 | CCCCCCCC(=O)OCOP1(=O)CO[C@H]2[C@@H](F)[C@H](n3cnc4c(N)ncnc43)O[C@@H]2COP(=O)(OCOC(=O)CCCCCCC)O[C@H]2[C@@H](F)[C@H](n3cnc4c(N)ncnc43)O[C@@H]2CO1 (single isomer, unassigned) [Compound 46a] | 0.003 | – | 0.001 | – | – | – | – | – |
| 0.001 | CCCCCCCC(=O)OCOP1(=O)CO[C@H]2[C@@H](F)[C@H](n3cnc4c(N)ncnc43)O[C@@H]2COP(=O)(OCOC(=O)CCCCCCC)O[C@H]2[C@@H](F)[C@H](n3cnc4c(N)ncnc43)O[C@@H]2CO1 (single isomer, unassigned) [Compound 46c] | 0.02 | – | 0.01 | – | – | – | – | – |
